Where “and” joins values, the source holds several entries; their conditions need not be identical. Equal entries are not always repeated. Entries after “also recorded” stand apart in the source; their conditions may differ.
Test system: patients with advanced solid tumors (SCLC, CRC, mCRPC, NUT carcinoma)
Assay: phase Ib expansion: DLTs, adverse events, exposure
Conditions: for DLT / DLT grade / DLT outcome / DLT duration: individual patient events; for patients with DLTs: phase Ib schedule B
[1] = phase Ib CRC, schedule B 2.5 mg
[2] = phase Ib NUT carcinoma, schedule B 2.5 mg
[3] = phase Ib NUT carcinoma, schedule C 6.0/3.0 mg
[4] = phase Ib SCLC, schedule B 2.5 mg
[5] = phase Ib mCRPC, schedule B 2.5 mg
[6] = phase Ib, NUT carcinoma total n = 42

From the text: The primary endpoint for the phase Ib expansion was the number of patients who experienced DLTs during the study treatment period.
For fatigue at baseline, there had to be an increase of two or more grades.

CNc1nc(-c2nc3ccc(N4CCN(C)CC4)cc3n2Cc2ccccc2)cn2c(C)nnc12 [BI 894999]
most frequent DLT (phase Ia DLBCL extension and phase Ib): grade 4 thrombocytopenia | discontinuation because of DLT (phase Ib): 3.8% | discontinuation because of other AEs (phase Ib): 10.1% | discontinuation because of progressive disease (phase Ib): 78.5% | dose continuations due to AEs (phase Ib): 13.9% | dose reductions due to AEs (phase Ib): 16.5% | median time to first dose reduction (phase Ib): 35.5 days | patients who died because of AEs (phase Ib): 8.9% | patients who required a dose reduction (phase Ib): 20.3% | patients with AEs of any grade (phase Ib): 100% | patients with treatment-related AEs (phase Ib): 83.5% | thrombocytopenia leading to dose discontinuation (phase Ib): 2.5% | DLT [1]: Dermatitis acneiform; also recorded: Thrombocytopenia | DLT grade [1]: 3 and 4 | DLT outcome [1]: Not recovered | DLT [2]: Decreased platelet count | DLT duration [2]: 6 days | DLT grade [2]: 4 | DLT outcome [2]: Not recovered | DLT [3]: Pleural effusion; also recorded: Fatigue; also recorded: Diarrhea; also recorded: Decreased platelet count | DLT duration [3]: 3 days and 16 days and 36 days | DLT grade [3]: 3 and 4 | DLT outcome [3]: Recovered; also recorded: Not recovered | DLT [4]: Laryngeal inflammation; also recorded: Thrombocytopenia; also recorded: Decreased appetite; also recorded: Fatigue; also recorded: Troponin T increased | DLT duration [4]: 4 days and 9 days and 11 days and 6 days | DLT grade [4]: 3 and 4 | DLT outcome [4]: Not recovered; also recorded: Recovered | DLT [5]: Thrombocytopenia; also recorded: Decreased platelet count; also recorded: Troponin T increased; also recorded: Stomatitis; also recorded: Nausea; also recorded: Decreased appetite; also recorded: Hypophosphatemia | DLT duration [5]: 40 days and 4 days and 3 days and 8 days and 12 days and 22 days | DLT grade [5]: 4 and 3 | DLT outcome [5]: Not recovered; also recorded: Recovered | patients with DLTs (CRC): 2 n | patients with DLTs (NUT carcinoma): 2 n | patients with DLTs (SCLC): 3 n | patients with DLTs (mCRPC): 7 n | ALT increase, treatment-related AE, any grade (phase Ib, CRC n = 14): 0 n (%) | ALT increase, treatment-related AE, grade ≥3 (phase Ib, CRC n = 14): 0 n (%) | Anemia, treatment-related AE, any grade (phase Ib, CRC n = 14): 3 (21.4) n (%) | Anemia, treatment-related AE, grade ≥3 (phase Ib, CRC n = 14): 2 (14.3) n (%) | Decreased appetite, treatment-related AE, any grade (phase Ib, CRC n = 14): 5 (35.7) n (%) | Decreased appetite, treatment-related AE, grade ≥3 (phase Ib, CRC n = 14): 0 n (%) | Decreased platelet count, treatment-related AE, any grade (phase Ib, CRC n = 14): 1 (7.1) n (%) | Decreased platelet count, treatment-related AE, grade ≥3 (phase Ib, CRC n = 14): 1 (7.1) n (%) | Diarrhea, treatment-related AE, any grade (phase Ib, CRC n = 14): 6 (42.9) n (%) | Diarrhea, treatment-related AE, grade ≥3 (phase Ib, CRC n = 14): 2 (14.3) n (%) | Dysgeusia, treatment-related AE, any grade (phase Ib, CRC n = 14): 3 (21.4) n (%) | Dysgeusia, treatment-related AE, grade ≥3 (phase Ib, CRC n = 14): 0 n (%) | Epistaxis, treatment-related AE, any grade (phase Ib, CRC n = 14): 1 (7.1) n (%) | Epistaxis, treatment-related AE, grade ≥3 (phase Ib, CRC n = 14): 0 n (%) | Fatigue, treatment-related AE, any grade (phase Ib, CRC n = 14): 4 (28.6) n (%) | Fatigue, treatment-related AE, grade ≥3 (phase Ib, CRC n = 14): 0 n (%) | Nausea, treatment-related AE, any grade (phase Ib, CRC n = 14): 3 (21.4) n (%) | Nausea, treatment-related AE, grade ≥3 (phase Ib, CRC n = 14): 0 n (%) | Number of patients with treatment-related AEs (phase Ib, CRC n = 14): 12 (85.7) n (%) | Thrombocytopenia, treatment-related AE, any grade (phase Ib, CRC n = 14): 5 (35.7) n (%) | Thrombocytopenia, treatment-related AE, grade ≥3 (phase Ib, CRC n = 14): 3 (21.4) n (%) | Vomiting, treatment-related AE, any grade (phase Ib, CRC n = 14): 3 (21.4) n (%) | Vomiting, treatment-related AE, grade ≥3 (phase Ib, CRC n = 14): 2 (14.3) n (%) | Weight decrease, treatment-related AE, any grade (phase Ib, CRC n = 14): 1 (7.1) n (%) | Weight decrease, treatment-related AE, grade ≥3 (phase Ib, CRC n = 14): 0 n (%) | ALT increase, treatment-related AE, any grade [6]: 5 (11.9) n (%) | ALT increase, treatment-related AE, grade ≥3 [6]: 0 n (%) | Anemia, treatment-related AE, any grade [6]: 11 (26.2) n (%) | Anemia, treatment-related AE, grade ≥3 [6]: 6 (14.3) n (%) | Decreased appetite, treatment-related AE, any grade [6]: 1 (2.4) n (%) | Decreased appetite, treatment-related AE, grade ≥3 [6]: 0 n (%) | Decreased platelet count, treatment-related AE, any grade [6]: 15 (35.7) n (%) | Decreased platelet count, treatment-related AE, grade ≥3 [6]: 7 (16.7) n (%) | Diarrhea, treatment-related AE, any grade [6]: 8 (19.0) n (%) | Diarrhea, treatment-related AE, grade ≥3 [6]: 1 (2.4) n (%) | Dysgeusia, treatment-related AE, any grade [6]: 5 (11.9) n (%) | Dysgeusia, treatment-related AE, grade ≥3 [6]: 0 n (%) | Epistaxis, treatment-related AE, any grade [6]: 1 (2.4) n (%) | Epistaxis, treatment-related AE, grade ≥3 [6]: 0 n (%) | Fatigue, treatment-related AE, any grade [6]: 10 (23.8) n (%) | Fatigue, treatment-related AE, grade ≥3 [6]: 4 (9.5) n (%) | Nausea, treatment-related AE, any grade [6]: 2 (4.8) n (%) | Nausea, treatment-related AE, grade ≥3 [6]: 0 n (%) | Number of patients with treatment-related AEs [6]: 32 (76.2) n (%) | Thrombocytopenia, treatment-related AE, any grade [6]: 10 (23.8) n (%) | Thrombocytopenia, treatment-related AE, grade ≥3 [6]: 6 (14.3) n (%)
